Assay results as given in PubChem BioAssay AID192 (DTP/NCI, 2004).
Several values for one entry are separate records, joined by “and”; a condition that tells them apart may be missing. Equal entries are not always repeated. Toxic doses and inconclusive results are not listed.

Test system: BDF1 mice, B16 melanoma ip, median survival T/C
Test: NCI In Vivo Anticancer Drug Screen. Data for tumor model B16 Melanoma (intraperitoneal) in B6D2F1 (BDF1) mice
Conditions: endpoint: median survival time, higher = longer survival
Procedure, shortened: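 Vehicle-treated animals serve as the reference (C); treated animals (T) are scored for survival or tumor size after tumor transplantation.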

[1] = dose: 100.0 mg/kg/injection, schedule: Q01DX009 (ip), vehicle: Klucel (hydroxypropylcellulose) (HPC)
[2] = dose: 200.0 mg/kg/injection, schedule: Q01DX009 (ip), vehicle: Klucel (hydroxypropylcellulose) (HPC)
[3] = dose: 50.0 mg/kg/injection, schedule: Q01DX009 (ip), vehicle: saline with Tween-80
[4] = dose: 100.0 mg/kg/injection, schedule: Q01DX009 (ip), vehicle: saline with Tween-80
[5] = dose: 200.0 mg/kg/injection, schedule: Q01DX009 (ip), vehicle: saline with Tween-80
[6] = dose: 400.0 mg/kg/injection, schedule: Q01DX009 (ip), vehicle: saline with Tween-80
[7] = dose: 2.5 mg/kg/injection, schedule: Q01DX009 (ip), vehicle: saline with Tween-80
[8] = dose: 25.0 mg/kg/injection, schedule: Q01DX009 (ip), vehicle: saline with Tween-80
[9] = dose: 25.0 mg/kg/injection, schedule: Q01DX009 (ip), vehicle: Klucel (hydroxypropylcellulose) (HPC)
[10] = dose: 50.0 mg/kg/injection, schedule: Q01DX009 (ip), vehicle: Klucel (hydroxypropylcellulose) (HPC)
[11] = dose: 6.25 mg/kg/injection, schedule: Q01DX009 (ip), vehicle: saline
[12] = dose: 12.5 mg/kg/injection, schedule: Q01DX009 (ip), vehicle: saline

COc1ccc(C[C@H](N)C(=O)NC2C(CO)OC(n3cnc4c(N(C)C)ncnc43)C2O)cc1 (stereo partly specified)
T/C (dose: 4.0 mg/kg/injection, schedule: Q01DX009 (ip), vehicle: saline): 114 % of control
T/C (dose: 8.0 mg/kg/injection, schedule: Q01DX009 (ip), vehicle: saline): 107 % of control
T/C (dose: 16.0 mg/kg/injection, schedule: Q01DX009 (ip), vehicle: saline): 109 % of control
T/C (dose: 32.0 mg/kg/injection, schedule: Q01DX009 (ip), vehicle: saline): 110 % of control and 114 % of control
T/C (dose: 40.0 mg/kg/injection, schedule: Q01DX009 (ip), vehicle: saline): 108 % of control

c1ccc(COc2ccc(Nc3ccccc3)cc2)cc1
T/C [1]: 106 % of control
T/C [2]: 109 % of control
T/C (dose: 400.0 mg/kg/injection, schedule: Q01DX009 (ip), vehicle: Klucel (hydroxypropylcellulose) (HPC)): 112 % of control

CC(C)(C)OC(=O)NC(CCC(N)=O)C(=O)ON1C(=O)CCC1=O (stereo unspecified)
T/C [3]: 100 % of control
T/C [4]: 93 % of control
T/C [5]: 97 % of control
T/C [6]: 86 % of control

Cc1n(CC(C)C)c2c([n+]1CC(=O)c1ccc([N+](=O)[O-])cc1)C(=O)c1ccccc1C2=O
T/C (dose: 0.1 mg/kg/injection, schedule: Q01DX009 (ip), vehicle: saline): 95 % of control
T/C (dose: 0.2 mg/kg/injection, schedule: Q01DX009 (ip), vehicle: saline): 97 % of control
T/C (dose: 0.4 mg/kg/injection, schedule: Q01DX009 (ip), vehicle: saline): 97 % of control
T/C (dose: 0.8 mg/kg/injection, schedule: Q01DX009 (ip), vehicle: saline): 88 % of control
T/C (dose: 1.2 mg/kg/injection, schedule: Q01DX009 (ip), vehicle: Klucel (hydroxypropylcellulose) (HPC)): 93 % of control
T/C (dose: 1.25 mg/kg/injection, schedule: Q01DX009 (ip), vehicle: saline with Tween-80): 86 % of control
T/C (dose: 1.8 mg/kg/injection, schedule: Q01DX009 (ip), vehicle: Klucel (hydroxypropylcellulose) (HPC)): 93 % of control
T/C [7]: 86 % of control
T/C (dose: 3.0 mg/kg/injection, schedule: Q01DX009 (ip), vehicle: Klucel (hydroxypropylcellulose) (HPC)): 87 % of control
T/C (dose: 5.0 mg/kg/injection, schedule: Q01DX009 (ip), vehicle: Klucel (hydroxypropylcellulose) (HPC)): 93 % of control

O=C1[O][Hg][c]2cccc3cccc1c23
T/C (dose: 1.65 mg/kg/injection, schedule: Q04DX003 (ip), vehicle: saline with Tween-80): 106 % of control
T/C [7]: 88 % of control
T/C (dose: 2.5 mg/kg/injection, schedule: Q04DX003 (ip), vehicle: saline with Tween-80): 100 % of control
T/C (dose: 5.0 mg/kg/injection, schedule: Q01DX009 (ip), vehicle: saline with Tween-80): 86 % of control
T/C (dose: 10.0 mg/kg/injection, schedule: Q04DX003 (ip), vehicle: saline with Tween-80): 123 % of control

C[N+](C)(C)CCOC(=O)c1ccccc1
T/C [4]: 91 % of control
T/C [5]: 93 % of control
T/C [6]: 91 % of control

CCCCCCCCCCCCCCCC(=O)N(C/C=C/CN(CCCN(C)C)C(=O)CCCCCCCCCCCCCCC)CCCN(C)C
T/C (dose: 0.78 mg/kg/injection, schedule: Q01DX009 (ip), vehicle: saline with Tween-80): 86 % of control
T/C (dose: 1.56 mg/kg/injection, schedule: Q01DX009 (ip), vehicle: saline): 90 % of control
T/C (dose: 1.6 mg/kg/injection, schedule: Q01DX009 (ip), vehicle: saline with Tween-80): 104 % of control
T/C (dose: 3.13 mg/kg/injection, schedule: Q01DX009 (ip), vehicle: saline with Tween-80): 97 % of control
T/C (dose: 3.2 mg/kg/injection, schedule: Q01DX009 (ip), vehicle: saline with Tween-80): 95 % of control
T/C (dose: 6.25 mg/kg/injection, schedule: Q01DX009 (ip), vehicle: saline with Tween-80): 95 % of control
T/C (dose: 6.3 mg/kg/injection, schedule: Q01DX009 (ip), vehicle: saline with Tween-80): 91 % of control
T/C (dose: 12.5 mg/kg/injection, schedule: Q04DX003 (ip), vehicle: saline with Tween-80): 177 % of control
T/C [8]: 158 % of control
T/C (dose: 25.0 mg/kg/injection, schedule: Q04DX003 (ip), vehicle: saline with Tween-80): 163 % of control
T/C (dose: 50.0 mg/kg/injection, schedule: Q04DX003 (ip), vehicle: saline with Tween-80): 155 % of control

CC(C)CN(CCCCO)CC(C)C
T/C [3]: 102 % of control
T/C [4]: 111 % of control
T/C [5]: 98 % of control

CCCC[N+](CCCC)(CCCC)CCCC.Cc1ccc([SH2+])c([SH2+])c1.Cc1ccc([SH2+])c([SH2+])c1.[Fe+3]
T/C [9]: 93 % of control
T/C [8]: 97 % of control
T/C [10]: 99 % of control
T/C [3]: 98 % of control
T/C [1]: 93 % of control
T/C [4]: 103 % of control
T/C [2]: 93 % of control
T/C [5]: 98 % of control

O=C1C=CC(=O)c2c(O)c(CO)c(CO)c(O)c21
T/C (dose: 0.39 mg/kg/injection, schedule: Q01DX009 (ip), vehicle: Klucel (hydroxypropylcellulose) (HPC)): 98 % of control
T/C (dose: 0.78 mg/kg/injection, schedule: Q01DX009 (ip), vehicle: Klucel (hydroxypropylcellulose) (HPC)): 89 % of control
T/C (dose: 1.56 mg/kg/injection, schedule: Q01DX009 (ip), vehicle: Klucel (hydroxypropylcellulose) (HPC)): 87 % of control

Cc1cc(C)c(C(=O)CC(=O)c2cccnc2)c(C)c1
T/C (dose: 100.0 mg/kg/injection, schedule: Q01DX009 (ip), vehicle: saline + Tween-80 + alcohol): 98 % of control
T/C (dose: 200.0 mg/kg/injection, schedule: Q01DX009 (ip), vehicle: saline + Tween-80 + alcohol): 91 % of control

COc1cc(Cc2nccc3cc(OC)c(OC)cc23)c(C(C)=O)cc1OC
T/C (dose: 3.12 mg/kg/injection, schedule: Q01DX009 (ip), vehicle: saline): 93 % of control
T/C [11]: 102 % of control
T/C [12]: 97 % of control
T/C (dose: 25.0 mg/kg/injection, schedule: Q01DX009 (ip), vehicle: saline): 103 % of control
T/C (dose: 50.0 mg/kg/injection, schedule: Q01DX009 (ip), vehicle: saline): 100 % of control

N=[N+]=CC(=O)OCC(N)C(=O)O (stereo unspecified)
T/C (dose: 1.5 mg/kg/injection, schedule: Q01DX009 (ip), vehicle: other): 100 % of control
T/C (dose: 3.13 mg/kg/injection, schedule: Q01DX009 (ip), vehicle: saline): 100 % of control
T/C (dose: 5.0 mg/kg/injection, schedule: Q04DX003 (ip), vehicle: water): 102 % of control
T/C [11]: 102 % of control
T/C (dose: 10.0 mg/kg/injection, schedule: Q04DX003 (ip), vehicle: other): 100 % of control
T/C [12]: 105 % of control
T/C (dose: 15.0 mg/kg/injection, schedule: Q04DX003 (ip), vehicle: water): 115 % of control
T/C (dose: 20.0 mg/kg/injection, schedule: Q04DX003 (ip), vehicle: other): 100 % of control
T/C (dose: 375.0 micrograms/kg/injection, schedule: Q01DX009 (ip), vehicle: water): 118 % of control
T/C (dose: 750.0 micrograms/kg/injection, schedule: Q01DX009 (ip), vehicle: water): 107 % of control

O=C(O)c1ccc(C(Cl)(Cl)Cl)cc1
T/C [8]: 105 % of control
T/C [3]: 103 % of control
T/C [4]: 98 % of control

C=C1CCN(c2ccc(C)cc2)C1=O
T/C (dose: 4.0 mg/kg/injection, schedule: Q01DX009 (ip), vehicle: saline + alcohol): 91 % of control
T/C (dose: 8.0 mg/kg/injection, schedule: Q01DX009 (ip), vehicle: saline + alcohol): 88 % of control
T/C (dose: 16.0 mg/kg/injection, schedule: Q01DX009 (ip), vehicle: saline + alcohol): 94 % of control
T/C (dose: 32.0 mg/kg/injection, schedule: Q01DX009 (ip), vehicle: saline + alcohol): 89 % of control
T/C (dose: 64.0 mg/kg/injection, schedule: Q01DX009 (ip), vehicle: saline + alcohol): 104 % of control

COc1cc([C@@H]2c3cc4c(cc3C[C@H]3COC(=O)[C@@H]32)OCO4)cc(OC)c1OC
T/C (dose: 5.0 mg/kg/injection, schedule: Q01DX009 (ip), vehicle: saline): 107 % of control
T/C (dose: 10.0 mg/kg/injection, schedule: Q01DX009 (ip), vehicle: saline): 109 % of control

CCNC(C)(C)C(SSSC(c1cccs1)C(C)(C)NCC)c1cccs1 (stereo unspecified)
T/C [9]: 100 % of control
T/C [10]: 94 % of control

CCOC(=O)C(=Cc1ccc(C=C(C(=O)OCC)C(=O)OCC)cc1)C(=O)OCC
T/C [10]: 93 % of control
T/C [2]: 93 % of control
